# In the supplement of paper PMC10307832:
# What was measured:
# Experiment in all cases: relative viability (nuclei count vs DMSO), 5 days (fraction); higher = more cells survive
# [1] = compound: Cn1cc(-c2cnc3ccc4ccc(CS(=O)(=O)NCc5ccccn5)cc4c(=O)c3c2)cn1 [MK-8033] + C[C@@H](Oc1cc(-c2cnn(C3CCNCC3)c2)cnc1N)c1c(Cl)ccc(F)c1Cl [Crizotinib] (partner 1 µM)
# How it was run: (§1)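 A single step with final 0.05% Triton X-100, 1% formaldehyde and 1 ug/ml Hoechst fixed the cells and stained nuclei 5 days after treatment. Lung cancer cell lines in 1536-well plates had been treated by pin tool the day after seeding with one drug alone or a fixed anchor-drug dose plus five library-drug doses (not always all listed) in √10 steps, and nuclei were counted on 4× images. Relative viability is the ratio of nuclei in treated wells to nuclei in vehicle wells, taken as the median of duplicate plates.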
# [2] = compound: CC[C@@H](C)CNCC(=O)N1CCC2=C([C@@H]1COC3=CC=CC(=C3)C)C=CS2 [RU-SKI 43] + CCNC(=O)c1noc(-c2cc(C(C)C)c(O)cc2O)c1-c1ccc(CN2CCOCC2)cc1 [Luminespib] (partner 0.01 µM)
# How it was run: as §1
# [3] = compound: CC[C@@H](C)CNCC(=O)N1CCC2=C([C@@H]1COC3=CC=CC(=C3)C)C=CS2 [RU-SKI 43] + CC(=O)c1c(C)c2cnc(Nc3ccc(N4CCNCC4)cn3)nc2n(C2CCCC2)c1=O [Palbociclib] (partner 0.5 µM)
# How it was run: as §1
# [4] = compound: CCc1c2c(nc3ccc(OC(=O)N4CCC(N5CCCCC5)CC4)cc13)-c1cc3c(c(=O)n1C2)COC(=O)[C@]3(O)CC [Irinotecan] + Cc1nc(NC(=O)N2CCC[C@H]2C(N)=O)sc1-c1ccnc(C(C)(C)C(F)(F)F)c1 [Alpelisib] (partner 2 µM)
# How it was run: as §1
cell line,measurement,setting,value
UMC-11,relative viability,[1]; first compound 0.02 µM,0.737
same,relative viability,[1]; first compound 0.06325 µM,0.459
same,relative viability,[1]; first compound 0.2 µM,0.734
same,relative viability,[1]; first compound 0.6325 µM,0.678
same,relative viability,[1]; first compound 2 µM,0.697
same,relative viability,[2]; first compound 0.1 µM,1.13
same,relative viability,[2]; first compound 0.3162 µM,1.29
same,relative viability,[2]; first compound 1 µM,1
same,relative viability,[2]; first compound 3.162 µM,1.04
same,relative viability,[2]; first compound 10 µM,1.09
same,relative viability,[3]; first compound 0.1 µM,0.317
same,relative viability,[3]; first compound 0.3162 µM,0.31
same,relative viability,[3]; first compound 1 µM,0.351
same,relative viability,[3]; first compound 3.162 µM,0.314
same,relative viability,[3]; first compound 10 µM,0.323
same,relative viability,[4]; first compound 0.6325 µM,0.572
same,relative viability,[4]; first compound 2 µM,0.401
same,relative viability,[4]; first compound 6.325 µM,0.214
same,relative viability,[4]; first compound 20 µM,0.229
